Test results published in patent publication US12428377B2, “Sodium-hydrogen exchanger 3 inhibitor compounds” (Eli Lilly and Company, priority 2019, dated 2025).

Legend:
human NHE3 = target: T1, human NHE3 (Homo sapiens, UniProt P48764); assay: In vitro NHE3 inhibition activity (intracellular pH recovery, BCECF-AM, NHD C8 cells overexpressing human NHE3); format: cell-based; conditions: geometric mean of individual IC50
T1 construct: myc; expressed in transfected cells
T1 sequence (P48764 26-834): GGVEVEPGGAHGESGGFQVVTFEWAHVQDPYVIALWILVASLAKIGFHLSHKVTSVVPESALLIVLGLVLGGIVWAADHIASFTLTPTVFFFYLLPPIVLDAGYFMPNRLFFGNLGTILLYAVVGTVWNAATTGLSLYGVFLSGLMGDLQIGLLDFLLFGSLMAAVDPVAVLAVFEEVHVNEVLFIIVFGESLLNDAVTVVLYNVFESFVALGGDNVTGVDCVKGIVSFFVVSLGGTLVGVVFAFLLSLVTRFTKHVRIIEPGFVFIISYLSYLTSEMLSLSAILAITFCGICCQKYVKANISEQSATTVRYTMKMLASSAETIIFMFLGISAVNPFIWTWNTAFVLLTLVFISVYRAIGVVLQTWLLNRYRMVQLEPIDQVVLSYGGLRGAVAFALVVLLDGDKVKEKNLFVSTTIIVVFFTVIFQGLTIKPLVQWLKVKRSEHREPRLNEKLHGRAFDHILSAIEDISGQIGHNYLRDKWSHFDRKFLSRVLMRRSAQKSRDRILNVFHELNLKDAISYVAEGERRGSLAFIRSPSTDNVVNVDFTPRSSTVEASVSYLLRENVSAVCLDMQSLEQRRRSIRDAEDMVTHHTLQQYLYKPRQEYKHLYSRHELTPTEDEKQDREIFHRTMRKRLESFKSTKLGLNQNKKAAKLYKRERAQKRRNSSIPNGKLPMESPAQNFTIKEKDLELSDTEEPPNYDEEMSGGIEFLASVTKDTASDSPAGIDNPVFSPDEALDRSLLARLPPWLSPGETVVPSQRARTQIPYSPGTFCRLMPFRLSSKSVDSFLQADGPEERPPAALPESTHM
Source text: In Vitro NHE3 Inhibition Activity
To create an NHE3 assay, cells selectively expressing NHE3 are generated by overexpressing human NHE3 in an endogenously NHE-deficient cell line. The NHE-deficient cell line is created by chemical-induced mutagenesis. After the mutagenesis, NHE-deficient cells are selected by subjecting lithium (Li) loaded cells to an acidic extracellular environment. Under these conditions, NHE exchanges intracellular Li^+ for extracellular protons, thus only NHE-deficient cells can avoid a toxic intracellular acidosis and survive.
An NHE-deficient cell line, NHD C8, is generated by mutagenesis and selection from the cell line Dede (ATCC® CCL-39™). The mutagenesis is induced by treating Dede CCL-39 cells with EMS (Sigma-Aldrich) in growth media at a final concentration of 500 μg/ml for 20 h. […]
To measure NHE activity, the intracellular pH of the cells is reduced by addition of NH4Cl. The sodium-dependent intracellular pH change is then measured by the intracellular pH-sensitive fluorescein dye, BCECF-AM (Molecular Probes-ThermoFisher Scientific). […] The plate is immediately read for fluorescent intensity at an excitation wavelength of 505 nm and emission wavelength of 550 nm. […]

Male Sprague-Dawley rats = assay: Effect of Example 1 on sodium absorption (urinary sodium excretion after oral NaCl bolus); format: in vivo, rat; conditions: 2 h urine; for Urinary Sodium to Creatinine Ratio: mean ± SEM
Experimental: Effect of Example 1 on Sodium Absorption
Urinary sodium excretion following an oral bolus dose of sodium chloride is an indirect measure of sodium absorption in the intestine.
Male Sprague-Dawley with body weights ranging from 200 to 250 g are randomized into groups based on equal mean body weights. Henceforth the following formulation is referred to as “1% HEC”: 1% hydroxyethyl cellulose (HEC) and 0.25% Tween® 80 with antifoam vehicle in water. Example 1 at 0.1 mg/mL (final dose 1 mg/kg dosed in 10 mL/kg volume) is formulated with 1% HEC in a glass vial containing a pre-weighed amount of compound, and then probe sonicating until it appears as a uniform suspension. […] The subsequent dosing solutions of Example 1 are prepared by serial dilutions with 1% HEC. NaCl at 10 mg/ml (final dose 200 mg/kg dosed in 20 ml/kg volume) is formulated by adding sterile water.
On the day before the study, the animals are placed into clean cages without food but with access to water for an overnight fast. On the day of the study, rats are orally dosed with vehicle or varying doses of Example 1. 30 min later, animals are dosed with NaCl, then immediately transferred to metabolic cages. Urine samples are collected for 2 h. Net urine volume is recorded. Urinary sodium, and creatinine are assessed using a clinical biochemistry analyzer.
Values expressed as the ratio of urinary sodium to creatinine (mM/mM) are calculated and presented as mean±SEM. The curves are fitted with 4-parameter logistic curve fitting tool GraphPad Prism 6 to calculate the ED50. For the purpose of curve fitting, the dose of Example 1 is artificially set to 0.001 mg/kg in the software for the vehicle-alone group.

In the case of `CN1Cc2c(Cl)cc(Cl)cc2[C@H](c2cccc(S(=O)(=O)NCCOCCOCCN/C(=N\C#N)NCCCCN/C(=N/C#N)NCCOCCOCCNS(=O)(=O)c3cccc([C@@H]4CN(C)Cc5c(Cl)cc(Cl)cc54)c3)c2)C1` [Example 1, 2-Cyano-1-[4-[[N′-cyano-N-[2-[2-[2-[[3-[(4S)-6,8-dichloro-2-methyl-3,4-dihydro-1H-isoquinolin-4-yl]phenyl]sulfonylamino]ethoxy]ethoxy]ethyl]carbamimidoyl]amino]butyl]-3-[2-[2-[2-[[3-[(4S)-6,8-dichloro-2-methyl-3,4-dihydro-1H-isoquinolin-4-yl]phenyl]sulfonylamino]ethoxy]ethoxy]ethyl]guanidine], the IC50 (human NHE3) is reported as 37.9 nM, the ED50 (Male Sprague-Dawley rats; Rattus norvegicus, oral, NaCl bolus 200 mg/kg) is reported as 0.058 mg/kg and the “Urinary Sodium to Creatinine Ratio” value (Male Sprague-Dawley rats; oral 0.03 mg/kg) is reported as 1.19 ± 0.19 mM/mM. For the same compound, the “Urinary Sodium to Creatinine Ratio” value (Male Sprague-Dawley rats; oral 0.1 mg/kg) was 0.80 ± 0.23 mM/mM, the “Urinary Sodium to Creatinine Ratio” value (Male Sprague-Dawley rats; oral 0.3 mg/kg) was 0.37 ± 0.06 mM/mM and the “Urinary Sodium to Creatinine Ratio” value (Male Sprague-Dawley rats; oral 1.0 mg/kg) was 0.63 ± 0.23 mM/mM.
